Source: patent US7259161B2, “Compositions useful as inhibitors of JAK and other protein kinases” (Vertex Pharmaceuticals Incorporated, priority 2002, dated 2007)

Legend:
Assay type in all cases: biochemical
JNK3 = JNK3 (Homo sapiens, UniProt P53779); assay: JNK3 inhibition assay (spectrophotometric coupled-enzyme assay); details: 10 μM ATP, 10 nM activated JNK3
Procedure: Compounds were assayed for the inhibition of JNK3 by a spectrophotometric coupled-enzyme assay. In this assay, a fixed concentration of activated JNK3 (10 nM) was incubated with various concentrations of a potential inhibitor dissolved in DMSO for 10 minutes at 30° C. in a buffer containing 0.1 M HEPES buffer, pH 7.5, containing 10 mM MgCl2, 2.5 mM phosphoenolpyruvate, 200 μM NADH, 150 μg/mL pyruvate kinase, 50 μg/mL lactate dehydrogenase, and 200 μM EGF receptor peptide. The EGF receptor peptide is a phosphoryl acceptor in the JNK3-catalyzed kinase reaction. The reaction was initiated by the addition of 10 μM ATP and the assay plate is inserted into the spectrophotometer's assay plate compartment that was maintained at 30° C. The decrease of absorbance at 340 nm was monitored as a function of time. The rate data as a function of inhibitor concentration was fitted to competitive inhibition kinetic model to determine the Ki.

ZAP-70 = target: T1, ZAP-70 (Homo sapiens, UniProt P43403); assay: ZAP-70 inhibition assay (coupled enzyme assay); details: 100 μM ATP, 60 nM ZAP-70
T1 sequence (P43403 1-619): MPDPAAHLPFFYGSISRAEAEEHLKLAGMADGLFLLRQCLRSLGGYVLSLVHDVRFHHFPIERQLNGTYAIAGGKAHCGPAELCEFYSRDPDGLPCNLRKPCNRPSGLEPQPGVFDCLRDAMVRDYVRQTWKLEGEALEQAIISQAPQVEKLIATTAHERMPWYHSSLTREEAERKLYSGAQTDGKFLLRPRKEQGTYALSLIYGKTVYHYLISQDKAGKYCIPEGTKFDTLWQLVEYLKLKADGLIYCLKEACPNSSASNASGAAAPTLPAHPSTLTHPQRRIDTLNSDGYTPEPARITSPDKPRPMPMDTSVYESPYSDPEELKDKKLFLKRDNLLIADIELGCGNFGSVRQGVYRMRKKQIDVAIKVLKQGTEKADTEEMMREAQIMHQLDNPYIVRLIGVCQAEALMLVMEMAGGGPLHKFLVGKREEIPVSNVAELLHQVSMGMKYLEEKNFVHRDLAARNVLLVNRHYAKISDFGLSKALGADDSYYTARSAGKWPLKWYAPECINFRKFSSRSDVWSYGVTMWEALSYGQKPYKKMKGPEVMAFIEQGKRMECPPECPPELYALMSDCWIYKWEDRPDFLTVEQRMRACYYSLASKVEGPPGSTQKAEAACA
Procedure: Compounds were screened for their ability to inhibit ZAP-70 using a standard coupled enzyme assay (Fox et al., Protein Sci., (1998) 7, 2249). Assays were carried out in a mixture of 100 mM HEPES 7.5, 10 mM MgCl2, 25 mM NaCl, 2 mM DTT and 3% DMSO. Final substrate concentrations in the assay were 100 μM ATP (Sigma Chemicals) and 20 μM peptide (poly-4EY, Sigma Chemicals). Assays were carried out at 30° C. and 60 nM ZAP-70. Final concentrations of the components of the coupled enzyme system were 2.5 mM phosphoenolpyruvate, 300 μM NADH, 30 μg/ml pyruvate kinase and 10 μg/ml lactate dehydrogenase.
An assay stock buffer solution was prepared containing all of the reagents listed above, with the exception of ZAP-70 and the test compound of interest. 55 μl of the stock solution was placed in a 96 well plate followed by addition of 2 μl of DMSO stock containing serial dilutions of the test compound (typically starting from a final concentration of 15 μM). […] Initial reaction rates were determined with a Molecular Devices SpectraMax Plus plate reader over a 15 minute time course. IC50 and Ki data were calculated from non-linear regression analysis using the Prism software package (GraphPad Prism version 3.0a for Macintosh, GraphPad Software, San Diego Calif., USA).

CDK-2/Cyclin A = CDK-2/Cyclin A (Homo sapiens, UniProt P24941); assay: CDK2 inhibition assay (coupled enzyme assay); details: 100 μM ATP, 25 nM CDK-2/Cyclin A
Procedure: Compounds were screened for their ability to inhibit CDK-2/Cyclin A using a standard coupled enzyme assay (Fox et al (1998) Protein Sci 7, 2249). Reactions were carried out in 100 mM HEPES pH 7.5, 10 mM MgCl2, 25 mM NaCl, 1 mM DTT and 1.5% DMSO. Final substrate concentrations in the assay were 100 μM ATP (Sigma chemicals) and 100 μM peptide (American Peptide, Sunnyvale, Calif.). Assays were carried out at 30° C. and 25 nM CDK-2/Cyclin A. Final concentrations of the components of the coupled enzyme system were 2.5 mM phosphoenolpyruvate, 350 μM NADH, 30 μg/ml pyruvate kinase and 10 μg/ml lactate dehydrogenase.
An assay stock buffer solution was prepared containing all of the reagents listed above, with the exception of CDK-2/Cyclin A, DTT and the test compound of interest. 56 μl of the test reaction was placed in a 384 well plate followed by addition of 1 μl of 2 mM DMSO stock containing the test compound (final compound concentration 30 μM). The plate was preincubated for ˜10 minutes at 30° C. and the reaction initiated by addition of 10 μl of enzyme (final concentration 25 nM). Rates of reaction were obtained using a BioRad Ultramark plate reader (Hercules, Calif.) over a 5 minute read time at 30° C. Compounds showing >50% inhibition versus standard wells containing DMSO, but no compound, were titrated and IC50's determined using a similar protocol.

Measured: Ki

JNK3, sequence (P53779 whole entry, species assumed): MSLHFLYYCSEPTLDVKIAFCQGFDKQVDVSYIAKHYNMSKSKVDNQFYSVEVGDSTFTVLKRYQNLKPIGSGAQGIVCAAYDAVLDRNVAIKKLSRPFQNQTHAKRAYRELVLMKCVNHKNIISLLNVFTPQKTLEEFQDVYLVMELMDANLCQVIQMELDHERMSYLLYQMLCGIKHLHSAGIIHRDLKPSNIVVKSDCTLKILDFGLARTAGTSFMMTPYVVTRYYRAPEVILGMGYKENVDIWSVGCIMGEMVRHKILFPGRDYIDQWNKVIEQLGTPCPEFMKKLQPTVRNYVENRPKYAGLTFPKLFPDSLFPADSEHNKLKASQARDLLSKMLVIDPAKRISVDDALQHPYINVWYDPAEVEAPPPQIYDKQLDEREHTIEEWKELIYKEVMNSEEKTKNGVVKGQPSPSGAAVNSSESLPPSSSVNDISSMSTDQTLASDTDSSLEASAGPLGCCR

NS(=O)(=O)c1ccc(Nc2nccc(-c3ccc4c(c3)NC(=O)CO4)n2)cc1 [IVa-23]
< 1 µM: all assays above

CN1C(=O)COc2ccc(-c3ccnc(Nc4ccc(S(N)(=O)=O)cc4)n3)cc21 [IVa-24]
< 1 µM: all assays above
